These results are taken from patent US20240423925A1, “GRANULE COMPRISING ENCAPSULATED ACTIVE INGREDIENTS” (DSM IP ASSETS B.V., priority 2021, published 2024).

Molecules are shown by their SMILES.

The nature of the data set: Differential scanning calorimetry (DSC) of sorbitol grades. The settings on record: sorbitol grades used as binder. The class given is physicochemical. As to the method: Different grades of sorbitol were then investigated in order to further reduce the energy required to generate good water soluble granules. Samples were analyzed via differential scanning calorimetry (DSC) in order to determine the sorbitol grade with the lowest melt energy. When using sorbitol grade Xtab300S (available at Roquette®) as a binder, the energy required to generate good water-soluble granules is lower than the other grades (cf. Table below).
For the compound `OC[C@@H](O)[C@@H](O)[C@H](O)[C@@H](O)CO` [Example P100C, sorbitol], the “Melt Energy” value came out at 181.9 J/g. To `OC[C@@H](O)[C@@H](O)[C@H](O)[C@@H](O)CO` [Example P300C, sorbitol] belongs 180.3 J/g; to `OC[C@@H](O)[C@@H](O)[C@H](O)[C@@H](O)CO` [Example P550SD, sorbitol], 165.1 J/g; to `OC[C@@H](O)[C@@H](O)[C@H](O)[C@@H](O)CO` [Example P650C, sorbitol], 174.9 J/g. Then `OC[C@@H](O)[C@@H](O)[C@H](O)[C@@H](O)CO` [Xtab200S, sorbitol], with 161.7 J/g; and `OC[C@@H](O)[C@@H](O)[C@H](O)[C@@H](O)CO` [Xtab300S, sorbitol], with 126.5 J/g.
